The source of these data is PubChem BioAssay AID1189 (EPA DSSTox, 2008).

Activity calls are given as the source filed them.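 How the source made its calls: active means a tumor-causing dose value with its tumor site reported for any sex and species group of a rodent or other animal cancer study; inconclusive means only studies judged inadequate by the national testing program; inactive means tested in at least one study, none positive.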

This data set can be described thus: DSSTox (CPDBAS) Carcinogenic Potency Database Summary SingleCellCall Results. The following applies: animal chronic carcinogenicity bioassays, CPDB summary call. The procedure, abridged: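 Literature-derived summary: each substance receives an overall carcinogenic/non-carcinogenic category drawn from long-term bioassays in rats, mice, hamsters, dogs or primates, using the most positive sex-species experiment and minimal evidence criteria.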
For the compound `O=C(O)CCl`, the outcome was “inactive; active”. The same measure for `CC(=O)CN(N=O)C(N)=O`: “active”.

In the case of `C/C=C1/C[C@@H](C)[C@](O)(CO)C(=O)OCC2=CCN3CC[C@@H](OC1=O)[C@@H]23`, the outcome was active. The same measure for `FC(Cl)(Cl)Cl`: “inactive; active”; for `Cc1ccccc1N=O`: “active”; for `C=C(C)C#N`: “inactive”.

`C[C@]12CC[C@@H]3c4ccc(OC(=O)Cc5ccc(N(CCCl)CCCl)cc5)cc4CC[C@H]3[C@@H]1CC[C@@H]2OC(=O)Cc1ccc(N(CCCl)CCCl)cc1`: the outcome was active. As to `COc1ccc(C(=O)/C(Br)=C\C(=O)O)cc1`, the result was active. The same measure for `CN(C)C(=O)COC(=O)Cc1ccc(OC(=O)c2ccc(N=C(N)N)cc2)cc1`: “inactive”; for `NCCCC(N)(C(=O)O)C(F)F` (stereo not given): “inactive”; for `CN(C)C(=S)[S-].CN(C)C(=S)[S-].[Cu+2]`: “inactive”. The same measure for `C[C@]12CC[C@H](OS(=O)(=O)O)CC1=CC[C@@H]1[C@@H]2CC[C@]2(C)C(=O)CC[C@@H]12`: “inactive; active”; for `CC(/C=C/C=C(\C)C(=O)O[C@@H]1O[C@H](CO[C@@H]2O[C@H](CO)[C@@H](O)[C@H](O)[C@H]2O)[C@@H](O)[C@H](O)[C@H]1O)=C\C=C\C=C(C)\C=C\C=C(/C)C(=O)O[C@@H]1O[C@H](CO[C@@H]2O[C@H](CO)[C@@H](O)[C@H](O)[C@H]2O)[C@@H](O)[C@H](O)[C@H]1O`: “inactive”. Turning to `O=C1NCCN1`, the outcome was inactive. The same measure for `N#CSCc1ccccc1`: “inactive”; for `CC(=O)Nc1ccc(C(=O)CCl)cc1`: “inactive”. Take `Nc1ccc2c(c1)C(=O)c1ccccc1C2=O`: the result was active. The same measure for `CNC(=S)NC`: “inactive”. The same measure for `O=C(OOC(=O)c1ccccc1)c1ccccc1`: “inactive”. The same measure for `CC(=O)OC/C=C(\C)CCC=C(C)C`: “inactive”; for `CC1(C)OC(=O)NC1=O`: “inactive”; for `CN(C)C(=O)Nc1ccc(Cl)cc1`: “active”.

On to `CC1=NN(c2ccccc2)C(=O)C1`, for which the outcome was inactive. The same measure for `C=C1CC[C@H](O)C/C1=C/C=C1\CCC[C@]2(C)[C@@H]([C@H](C)/C=C/[C@H](C)C(C)C)CC[C@@H]12`: “inactive”; for `CCCCN(N=O)C(=N)N[N+](=O)[O-]`: “inactive”. Consider `CS(=O)(=O)c1ccc([C@@H](O)[C@@H](CO)NC(=O)C(Cl)Cl)cc1`, for which the result was inactive. The same measure for `Cc1cccc(C)c1NC1=NCCCS1`: “inactive”. The same measure for `NC(=O)c1cccnc1`: “inactive”; for `O=C(O[C@@H]1Cc2c(O)cc(O)cc2O[C@@H]1c1cc(O)c(O)c(O)c1)c1cc(O)c(O)c(O)c1`: “inactive”; for `CC(C(O)c1ccccc1)N(C)N=O` (stereo not given): “active”. The same measure for `Cl/C=C/CCl`: “active”; for `CN(N)C=O`: “active”. Turning to `NC(=O)N/N=C/c1ccco1`, the result was inactive. The same measure for `O=C/C=C/O`: “active”; for `CCN(CC)c1cc2oc3cc(=[N+](CC)CC)c(C)cc-3c(-c3ccc(S(=O)(=O)O)cc3S(=O)(=O)[O-])c2cc1C`: “inactive”; for `COc1cc2c(c3c1c(=O)c1ccccc1n3C)C=CC(C)(C)O2`: “active; inactive”. For the compound `CN1C(=O)OC(C)(C)C1=O`, the result was inactive. The same measure for `CN(C)CNc1nnc(/C=C/c2ccc([N+](=O)[O-])o2)o1`: “active”; for `Nc1ccc(S(=O)(=O)c2ccc(N)cc2)cc1`: “active”.

Turning to `N[C@@H](Cc1ccc(N(CCCl)CCCl)cc1)C(=O)O`, the outcome was active. The same measure for `O=C(O)C(Cl)Cl`: “active; inactive”.

Consider `CC=O`, for which the outcome was “active; inactive”. The same measure for `C/C=C1/C[C@@H](C)[C@@](C)(O)C(=O)OC/C2=C/CN(C)CC[C@@H](OC1=O)C2=O`: “active”; for `O=S(=O)(Oc1ccc(Cl)cc1)c1ccc(Cl)cc1`: “inactive”.

Take `C=C(C)[C@H]1CC=C(C)C(=O)C1`: the outcome was “inactive; active”.

On to `CCCCCCCCCc1ccc(OCCOCCO)cc1`, for which the outcome is “inactive; active”.

`Clc1ccc(-c2cccc(Cl)c2Cl)c(Cl)c1`: the outcome was active. The same measure for `NCCCCCCCCCCC(=O)O`: “active”; for `O=C1CCCO1`: “inactive”. Regarding `O=[N+]([O-])c1ccc(Cl)cc1`, the result was active. As for `CCC1CO1` (stereo not given), the outcome was “active; inactive”. Regarding `Nc1c(F)c(N)c(F)c(F)c1F`, the outcome is “active; inactive”. The same measure for `O=NN1CC(=O)NC1=O`: “active”. Regarding `ClCOCc1ccc(COCCl)cc1`, the outcome was active. With `O=C1C(Cl)=C(Cl)C(=O)C(Cl)=C1Cl`, the outcome was inactive.

Take `Cc1cccc(C)c1NC(=O)CN1CCCC1=O`: the result was inactive. In the case of `NCCc1ccc(O)c(O)c1`, the outcome was inactive. The same measure for `CN[C@H]1CC[C@@H](c2ccc(Cl)c(Cl)c2)c2ccccc21`: “inactive”; for `NNc1nc(-c2ccc([N+](=O)[O-])o2)cs1`: “active; inactive”; for `O=C(O)c1cc(=O)[nH]c(=O)[nH]1`: “inactive”. The same measure for `CCC(C)c1cc([N+](=O)[O-])cc([N+](=O)[O-])c1O` (stereo not given): “inactive”; for `CCN(CC)CCOc1ccc(C(O)(Cc2ccc(OC)cc2)c2ccccc2)cc1` (stereo not given): “inactive”; for `O=C(O)CCCc1ccc(N(CCCl)CCCl)cc1`: “active”. For the compound `CC/C(=C(/CC)c1ccc(O)cc1)c1ccc(O)cc1`, the outcome was active. For the compound `CCCN(CCC)S(=O)(=O)c1ccc(C(=O)O)cc1`, the result was active. With `CCN(CC)C(C)=O`, the result was active.

In the case of `C=CCOC(=O)CC(C)C`, the outcome was active. The same measure for `C1CCC(C(CC2CCCCN2)C2CCCCC2)CC1` (stereo not given): “inactive”; for `S=C=Nc1ccccc1`: “inactive”.

With `C=CC=O`, the outcome was inactive. The same measure for `C=CCOc1ccc(CC(=O)O)cc1Cl`: “inactive”. The same measure for `CC1=C(C(=O)OCCN(Cc2ccccc2)c2ccccc2)C(c2cccc([N+](=O)[O-])c2)C(P2(=O)OCC(C)(C)CO2)=C(C)N1` (stereo not given): “inactive”; for `CC(=O)Nc1nc(NC(C)=O)nc(-c2ccc([N+](=O)[O-])o2)n1`: “active”. The same measure for `O=C1C=CC(=O)C=C1`: “active”. With `O=C(C1CCCCC1)N1CC(=O)N2CCc3ccccc3C2C1` (stereo not given), the result was inactive. Regarding `CC(C)=NNc1ncc(-c2ccc([N+](=O)[O-])o2)s1`, the outcome was “active; inactive”. The same measure for `CN=C(N)N`: “inactive; active”.

For the compound `C#C[C@@]1(O)CC[C@H]2[C@@H]3CCC4=CCCC[C@@H]4[C@H]3CC[C@@]21C`, the result was active. The same measure for `CN(C)C(=S)[S][Pb][S]C(=S)N(C)C`: “inactive”.

On to `O=C(c1ccccc1)C(O)c1ccccc1` (stereo not given), for which the outcome is “inactive; active”. The same measure for `Nc1ccc(N=Nc2ccc(-c3ccc(N=Nc4c(S(=O)(=O)O)cc5cc(S(=O)(=O)O)c(N=Nc6ccccc6)c(O)c5c4N)cc3)cc2)c(N)c1`: “active; inactive”; for `OCC(CO)N[C@H]1C[C@](O)(CO)[C@@H](O)[C@H](O)[C@H]1O`: “inactive”. Consider `CCC[N+](=O)[O-]`, for which the result was inactive. As to `Nc1ccc(N=Nc2ccccc2)c(N)n1`, the outcome was active. The same measure for `O[C@@H]([C@H](O)[C@@H](O)CBr)[C@@H](O)CBr`: “active”; for `CCCN(N)C=O`: “active”; for `Nc1ccc(-c2ccc(F)cc2)cc1`: “active”. As for `O=C(NCC1CCCCN1)c1cc(OCC(F)(F)F)ccc1OCC(F)(F)F` (stereo not given), the outcome was inactive. As for `CCC1(c2ccccc2)C(=O)NCNC1=O`, the outcome was active.

Take `C=CCN=C=S`: the outcome was “active; inactive”. As for `COP(=S)(OC)Oc1ccc([N+](=O)[O-])cc1`, the result was inactive. The same measure for `C=CC(=O)NCO`: “active; inactive”; for `CCCCN(N)C=O`: “active”; for `CC1=CC(=C(c2ccc(N)cc2)c2ccc(N)cc2)C=CC1=N`: “inactive”.

As for `c1ccc2n[nH]nc2c1`, the outcome was inactive. The same measure for `CN(C)Nc1nc(-c2ccc([N+](=O)[O-])o2)cs1`: “active; inactive”. As to `OCCOCCO`, the result was active. The same measure for `C=CC(N)=O`: “active; inactive”. Consider `Nc1ccc([N+](=O)[O-])cc1O`, for which the outcome was active.

`CC(C)(C)c1cc(O)ccc1O`: the result was inactive. For `C[C@](N)(Cc1ccc(O)c(O)c1)C(=O)O`, the result was inactive. Regarding `CCN(CC)C(=S)S[Se](SC(=S)N(CC)CC)(SC(=S)N(CC)CC)SC(=S)N(CC)CC`, the outcome is “active; inactive”. The same measure for `CCn1cc(C(=O)O)c(=O)c2ccc(C)nc21`: “active”. For the compound `CCCNC(=O)NS(=O)(=O)c1ccc(Cl)cc1`, the result was inactive. The same measure for `Cn1cc[nH]c1=S`: “active; inactive”; for `C1CCOC1`: “active; inactive”; for `S=C(SSSSSSC(=S)N1CCCCC1)N1CCCCC1`: “inactive”. For `CC(C)N=[N+]([O-])C(C)C`, the result was active. Turning to `Cc1cccc2cccnc12`, the outcome was inactive. In the case of `COP(=O)(OC)OC=C(Cl)Cl`, the result was active.
